# Measured values from patent publication US9546200B2, “Peptide for protection of allergic respiratory disorders” (Board of Supervisors of Louisiana State University and …, priority 2011, dated 2017).
# Residues, ends and D or L forms follow the SMILES beside them.
# Tested on: foals
# Design: species or system horse
# Conditions: in vivo
# Protocol: Two days before the injection of the peptide-1, a foal along with the mare was brought from the pasture to a bedded stall of the LSU School of Veterinary Medicine. They were fed hay and concentrated horse chow (Horse Chow #200^R, Purina Mills, St. Louis, Mo.); water was provided ad libitum. A physical examination was conducted on the day of injection. The foal's body temperature, heart rate, respiratory rate, body weight, body score, sex, breed, age and general physical conditions were recorded. After the physical examination, 5 ml of blood was drawn from jugular vein to determine pre-immune antibody titer (control value) and CBC.
# Since the peptide-1 has not been tried in any animals, the first foal was used to test the injection method and dosage. A low dose of 0.1 mg/kg body weight of conjugated peptide-1 with KLH was used, but without an adjuvant to minimize any adverse reactions due to either a high dose of peptide-1 or adjuvant. This protocol allowed a determination of any reaction due to the conjugated peptide-1 alone. A subcutaneous route of administration was chosen to produce a consistent “slow and steady” absorption. The first injection was given on the left side of the neck after cleaning with alcohol. […] After the injection, 5 ml blood was collected weekly. A booster injection with the same dose and route was given on the right side of the neck on the 15th day following the initial injection. Weekly blood collections continued for 42 days. […] For the remaining foals, a new protocol was used in that an adjuvant was added to the injection and the booster injection was given on the 28th day after the initial injection.
# Immediately after injection (either the first injection or the booster), a small swelling (size 1″×0.5″) at the site of injection was observed. The foal was observed continuously for the first hour and later every hour for eight hours. The foal evinced pain upon touch at the injection site, but it was eating, nursing, and drinking within 15 minutes after injection. […] No sweating, fever, cough, seizure or difficulty in breathing was observed.
# The foal remained under close observation for another two days, when the swelling began to subside. On the third day, foal and mare were allowed to go to the pasture. A similar swelling occurred at the booster injection time also. Therefore, in the animal protocol, foals would be kept in the bedded stall with the mare for a week after injection to observe the foals closely. In addition, the protocol demanded that if the swollen area is more than 2.5″ in diameter and more than 0.5″ in thickness, hot water packs are to be applied to relieve pain and swelling. Veterinary medical care is to be consulted if the condition worsens. After one week in the stall, the Foal #2 was let out to pasture and continued to do well for the remainder of the experimental period of 57 days.
# The basic protocol is as described for Foal #2. However, before injecting the peptide, extra care was taken in cleaning the injection site by scrubbing the site with Septisol antiseptic foam (Septisol^R, Steris Corp., Ohio) and alcohol. […] There was a small swelling in this foal which lasted only for 24 hours, probably due to the adjuvant. The adjuvant has an oily consistency, which would facilitate slow absorption of the injected solution.
compound,measurement,setting,value
CC[C@H](C)[C@H](NC(=O)[C@H](CCCCN)NC(=O)[C@H](CC(=O)O)NC(=O)[C@H](CCSC)NC(=O)[C@H](CC(C)C)NC(=O)[C@H](CCCCN)NC(=O)[C@H](CC(C)C)NC(=O)[C@@H](NC(=O)[C@H](CO)NC(=O)[C@H](CC(=O)O)NC(=O)[C@H](CCCCN)NC(=O)[C@@H](NC(=O)[C@H](CC(N)=O)NC(=O)[C@@H](N)CCCCN)[C@@H](C)O)[C@@H](C)CC)C(=O)N[C@@H](C)C(=O)N[C@@H](CCCCN)C(=O)N[C@@H](CO)C(=O)N1CCC[C@H]1C(=O)N[C@@H](CC(C)C)C(=O)N[C@@H](CS)C(=O)N[C@@H](C)C(=O)O [Peptide-1] (H-KNTKDSILKLMDKIAKSPLCA-OH),area of swelling at the injection site,,2.5″×2″
same,size of swelling at the site of injection,,1″×0.5″
same,thickness of swelling at the injection site,,0.5 ″
same,duration of swelling,"sc, 0.1 mg/kg",24 h
same,other adverse reaction,"sc, 0.1 mg/kg",no other adverse reaction
